The supplement of paper PMC13380429

What was measured:
Conditions in all cases: 72 h
Vero E6 [1] = test: drug sensitivity score (DSS) for viability; higher = more toxic; extreme values may be limits of the assay
Calu-3 [2] = test: as above
Caco-2 [3] = test: as above
U2OS [4] = test: as above
HepG2 [5] = test: as above
Vero E6 [6] = test: cell viability relative to DMSO; higher = less toxic
Calu-3 [7] = test: as above
Caco-2 [8] = test: as above
U2OS [9] = test: as above
HepG2 [10] = test: as above
Vero E6 [11] = test: relative viability EC50 (midpoint between 100% and the lowest measured viability); higher = less toxic
Calu-3 [12] = test: as above
Caco-2 [13] = test: as above
U2OS [14] = test: as above
HepG2 [15] = test: as above

Row | SMILES | drug sensitivity score (Vero E6 [1]) | drug sensitivity score (Calu-3 [2]) | drug sensitivity score (Caco-2 [3]) | drug sensitivity score (U2OS [4]) | drug sensitivity score (HepG2 [5]) | cell viability (Vero E6 [6]; 1 nM) [%] | cell viability (Vero E6 [6]; 10 nM) [%] | cell viability (Vero E6 [6]; 100 nM) [%] | cell viability (Vero E6 [6]; 1000 nM) [%] | cell viability (Vero E6 [6]; 10000 nM) [%] | cell viability (Calu-3 [7]; 1 nM) [%] | cell viability (Calu-3 [7]; 10 nM) [%] | cell viability (Calu-3 [7]; 100 nM) [%] | cell viability (Calu-3 [7]; 1000 nM) [%] | cell viability (Calu-3 [7]; 10000 nM) [%] | cell viability (Caco-2 [8]; 1 nM) [%] | cell viability (Caco-2 [8]; 10 nM) [%] | cell viability (Caco-2 [8]; 100 nM) [%] | cell viability (Caco-2 [8]; 1000 nM) [%] | cell viability (Caco-2 [8]; 10000 nM) [%] | cell viability (U2OS [9]; 1 nM) [%] | cell viability (U2OS [9]; 10 nM) [%] | cell viability (U2OS [9]; 100 nM) [%] | cell viability (U2OS [9]; 1000 nM) [%] | cell viability (U2OS [9]; 10000 nM) [%] | cell viability (HepG2 [10]; 1 nM) [%] | cell viability (HepG2 [10]; 10 nM) [%] | cell viability (HepG2 [10]; 100 nM) [%] | cell viability (HepG2 [10]; 1000 nM) [%] | cell viability (HepG2 [10]; 10000 nM) [%] | relative viability EC50 (Vero E6 [11]) [µM] | relative viability EC50 (Calu-3 [12]) [µM] | relative viability EC50 (Caco-2 [13]) [µM] | relative viability EC50 (U2OS [14]) [µM] | relative viability EC50 (HepG2 [15]) [µM]
1 | OC[C@H]1O[C@@H](Oc2cc(O)cc(/C=C/c3ccc(O)cc3)c2)[C@H](O)[C@@H](O)[C@@H]1O [polydatin] | 0 | 0 | 0 | 0 | 0 | 101 | 104 | 95.7 | 100 | 99 | 100 | 101 | 96.9 | 103 | 102 | 99.4 | 97.2 | 97.4 | 101 | 96.3 | 101 | 103 | 102 | 99.4 | 98.2 | 98.1 | 93.9 | 93.2 | 96.6 | 96.8 | > 10 | > 10 | > 10 | > 10 | > 10
2 | CCCCCCCCCCCCc1ccc(S(=O)(=O)Nc2nncs2)cc1 [PHT-427] | 0 | 0 | 0 | 0 | 0 | 106 | 108 | 102 | 97.8 | 104 | 96.4 | 94.9 | 95.6 | 99.6 | 99 | 95.2 | 95.3 | 101 | 98.1 | 97.4 | 102 | 97.5 | 98.2 | 98.7 | 99.9 | 93.6 | 106 | 88.1 | 102 | 92.6 | > 10 | > 10 | > 10 | > 10 | > 10
3 | CN(CCOc1ccc(C[C@H](Nc2ccccc2C(=O)c2ccccc2)C(=O)O)cc1)c1ccccn1 [GW-1929] | 0 | 0 | 0.2 | 0 | 0 | 92 | 90.2 | 80.3 | 82.3 | 90.2 | 111 | 112 | 120 | 116 | 95.6 | 95.1 | 96.3 | 107 | 99.5 | 85.5 | 98.3 | 96.1 | 99.3 | 98.7 | 98.2 | 92.2 | 104 | 81.5 | 85.8 | 106 | > 10 | > 10 | > 10 | > 10 | > 10
4 | Nc1ccc([As](=O)(O)O)cc1 [arsanilic-acid] | 0 | 0 | 6 | 0 | 0 | 99.5 | 98.8 | 95.4 | 97.1 | 96.4 | 114 | 87.2 | 101 | 98.1 | 97.7 | 108 | 81.2 | 86.6 | 81.9 | 95.8 | 107 | 107 | 104 | 97.5 | 103 | 110 | 103 | 98.2 | 99.3 | 104 | > 10 | > 10 | > 10 | > 10 | > 10
5 | COc1cc(/C=C/C(=O)N2CCN(CC(=O)N3CCCC3)CC2)cc(OC)c1OC [cinepazide] | 0 | 0 | 0 | 0 | 0 | 98.5 | 98.1 | 102 | 100 | 98.6 | 104 | 96 | 95.8 | 94 | 101 | 96.4 | 105 | 94.9 | 103 | 91.3 | 92.6 | 97.5 | 92.1 | 100 | 95.6 | 101 | 96.9 | 90.8 | 98.2 | 96.1 | > 10 | > 10 | > 10 | > 10 | > 10
6 | Cc1ccc(/C(=C\CN2CCCC2)c2cccc(/C=C/C(=O)O)n2)cc1 [acrivastine] | 0 | 0 | 0 | 0 | 0 | 98.1 | 87.9 | 99.8 | 85.3 | 112 | 98.2 | 98.1 | 104 | 116 | 99.1 | 87.6 | 92.3 | 95.4 | 86.8 | 115 | 100 | 103 | 98.4 | 102 | 103 | 102 | 98.2 | 102 | 98.3 | 95.6 | > 10 | > 10 | > 10 | > 10 | > 10
7 | O=C1C2C=Nc3ccccc3C2=NN1c1ccc(Cl)cc1 (stereo not given) [CGS-9896] | 0 | 0 | 0.6 | 0 | 0 | 99.8 | 103 | 92.6 | 97.9 | 95.8 | 93.7 | 104 | 87.9 | 95.8 | 103 | 103 | 101 | 94.2 | 93 | 82.7 | 95.6 | 100 | 91.1 | 94 | 91.3 | 97.1 | 88.6 | 91 | 94.1 | 102 | > 10 | > 10 | > 10 | > 10 | > 10
8 | CC(C)N(CCNC(=O)CN1CCCC1=O)C(C)C [pramiracetam] | 0 | 0 | 0 | 0 | 0 | 93.9 | 97 | 94.4 | 99.7 | 108 | 95.7 | 103 | 109 | 100 | 103 | 94.6 | 93.6 | 114 | 96.4 | 98.9 | 98.8 | 93.2 | 103 | 95.6 | 105 | 101 | 100 | 97.6 | 107 | 104 | > 10 | > 10 | > 10 | > 10 | > 10
9 | COc1ccccc1CC(=N)N1C[C@@H]2C(=O)CCC(c3ccccc3)(c3ccccc3)[C@@H]2C1 | 0 | 0 | 0 | 0 | 0 | 94.3 | 101 | 94.7 | 95.9 | 110 | 94.1 | 88.4 | 98.3 | 109 | 86.6 | 96.6 | 96.5 | 95.3 | 109 | 98.4 | 103 | 95.1 | 101 | 101 | 93.8 | 93 | 95.9 | 88.2 | 106 | 105 | > 10 | > 10 | > 10 | > 10 | > 10
10 | NS(=O)(=O)c1cc2c(cc1Cl)NC(C1CC3C=CC1C3)NS2(=O)=O (stereo not given) [cyclothiazide] | 0 | 0 | 0 | 0 | 0 | 94.4 | 102 | 91.2 | 92.5 | 105 | 101 | 96.7 | 95.3 | 112 | 100 | 92.4 | 89 | 103 | 81.8 | 91.2 | 93.7 | 95.2 | 99.9 | 94.3 | 97.7 | 90.8 | 104 | 88.9 | 99.9 | 93.8 | > 10 | > 10 | > 10 | > 10 | > 10
11 | Cc1c(Cl)cccc1Nc1ccccc1C(=O)O [tolfenamic-acid] | 0 | 0 | 0 | 0 | 0 | 98.1 | 103 | 90.4 | 98.8 | 101 | 98.8 | 96.3 | 92.7 | 92.4 | 101 | 95.7 | 99 | 102 | 96.4 | 107 | 98.9 | 95 | 101 | 101 | 98.8 | 98.4 | 111 | 106 | 110 | 103 | > 10 | > 10 | > 10 | > 10 | > 10
12 | Cc1ccc(Cl)cc1N(CC(=O)Nc1c(F)cccc1F)S(C)(=O)=O [FPH1-(BRD-6125)] | 0 | 0 | 0 | 0 | 0 | 98.3 | 103 | 97.6 | 97.2 | 99.1 | 110 | 93.4 | 97.8 | 105 | 87.3 | 104 | 97.2 | 111 | 99.7 | 107 | 97.7 | 103 | 105 | 101 | 97.8 | 100 | 107 | 104 | 94.5 | 108 | > 10 | > 10 | > 10 | > 10 | > 10
13 | CCC(=O)OCN1C(=O)C=CC1=O [MIRA-1] | 0 | 0 | 0 | 0 | 0 | 95.8 | 91.8 | 99.8 | 92 | 107 | 90.6 | 108 | 104 | 101 | 98.9 | 90.6 | 97.5 | 87.8 | 94.7 | 112 | 99.3 | 99.4 | 102 | 102 | 105 | 104 | 95.9 | 106 | 106 | 103 | > 10 | > 10 | > 10 | > 10 | > 10
